Columns and labels:
[1] = target: T1, 5-hydroxytryptamine receptor 2A (Homo sapiens, UniProt P28223); test: Displacement of [3H]Ketanserin from human 5HT2A receptor at 10 uM
[2] = target: T2, 5-hydroxytryptamine receptor 2B (Homo sapiens, UniProt P41595); test: Displacement of [3H]LSD from human 5HT2B receptor at 10 uM
[3] = target: T3, 5-hydroxytryptamine receptor 2C (Homo sapiens) (UniProt P28335); test: Displacement of [3H]Mesulergine from human 5HT2C receptor at 10 uM
T3 sequence (whole entry): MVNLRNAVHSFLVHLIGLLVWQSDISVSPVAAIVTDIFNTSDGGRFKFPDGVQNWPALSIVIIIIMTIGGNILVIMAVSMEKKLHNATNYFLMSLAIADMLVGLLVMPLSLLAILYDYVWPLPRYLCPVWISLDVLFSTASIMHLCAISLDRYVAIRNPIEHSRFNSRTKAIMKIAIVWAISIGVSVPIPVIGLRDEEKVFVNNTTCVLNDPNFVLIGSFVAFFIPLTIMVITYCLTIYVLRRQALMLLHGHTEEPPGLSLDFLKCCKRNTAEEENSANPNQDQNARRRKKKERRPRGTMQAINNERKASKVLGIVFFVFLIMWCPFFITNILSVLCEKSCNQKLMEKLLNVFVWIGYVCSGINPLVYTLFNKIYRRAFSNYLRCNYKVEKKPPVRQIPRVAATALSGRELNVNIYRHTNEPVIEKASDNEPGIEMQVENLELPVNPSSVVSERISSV

[4] = target: T1, 5-hydroxytryptamine receptor 2A; test: Displacement of [3H]Ketanserin from human 5HT2A receptor
[5] = target: T2, 5-hydroxytryptamine receptor 2B; test: Displacement of [3H]LSD from human 5HT2B receptor
[6] = target: T4, 5-hydroxytryptamine receptor 2C (Homo sapiens, UniProt P28335); test: Displacement of [3H]Mesulergine from human 5HT2C receptor
T4 sequence (P28335 whole entry): T3 sequence (whole entry)

[7] = target: 5-hydroxytryptamine receptor 1A (Homo sapiens) (UniProt P08908); test: Displacement of [3H]8-OH-DPAT from human 5HT1A receptor at 10 uM
[8] = target: 5-hydroxytryptamine receptor 1B (Homo sapiens) (UniProt P28222); test: Displacement of [3H][…] from human 5HT1B receptor at 10 uM
[9] = target: 5-hydroxytryptamine receptor 1D (Homo sapiens) (UniProt P28221); test: Displacement of [3H][…] from human 5HT1D receptor at 10 uM
Sequence of 5-hydroxytryptamine receptor 1D (Homo sapiens) (P28221 whole entry): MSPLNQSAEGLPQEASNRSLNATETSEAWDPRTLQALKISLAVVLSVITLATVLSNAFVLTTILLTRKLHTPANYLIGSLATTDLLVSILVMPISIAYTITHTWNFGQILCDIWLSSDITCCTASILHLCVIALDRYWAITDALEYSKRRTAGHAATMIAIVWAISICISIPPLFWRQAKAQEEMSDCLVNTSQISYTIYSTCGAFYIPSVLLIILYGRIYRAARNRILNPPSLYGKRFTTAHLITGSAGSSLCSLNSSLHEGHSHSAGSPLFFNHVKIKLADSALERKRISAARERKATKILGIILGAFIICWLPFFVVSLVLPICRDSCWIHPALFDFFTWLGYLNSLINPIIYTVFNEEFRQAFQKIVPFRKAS

[10] = target: 5-hydroxytryptamine receptor 1E (Homo sapiens) (UniProt P28566); test: Displacement of [3H]5-HT from human 5HT1E receptor at 10 uM
[11] = target: 5-hydroxytryptamine receptor 3A (Homo sapiens) (UniProt P46098); test: Displacement of [3H]LY278584 from human 5HT3 receptor at 10 uM
[12] = target: 5-hydroxytryptamine receptor 5A (Homo sapiens) (UniProt P47898); test: Displacement of [3H]LSD from human 5HT5A receptor at 10 uM
[13] = target: 5-hydroxytryptamine receptor 7 (Homo sapiens) (UniProt P34969); test: Displacement of [3H]LSD from human 5HT7 receptor at 10 uM
[14] = target: Alpha-1A adrenergic receptor (Homo sapiens) (UniProt P35348); test: Displacement of [3H]Prazosin from human adrenergic alpha1A receptor at 10 uM
Sequence of Alpha-1A adrenergic receptor (Homo sapiens) (P35348 whole entry): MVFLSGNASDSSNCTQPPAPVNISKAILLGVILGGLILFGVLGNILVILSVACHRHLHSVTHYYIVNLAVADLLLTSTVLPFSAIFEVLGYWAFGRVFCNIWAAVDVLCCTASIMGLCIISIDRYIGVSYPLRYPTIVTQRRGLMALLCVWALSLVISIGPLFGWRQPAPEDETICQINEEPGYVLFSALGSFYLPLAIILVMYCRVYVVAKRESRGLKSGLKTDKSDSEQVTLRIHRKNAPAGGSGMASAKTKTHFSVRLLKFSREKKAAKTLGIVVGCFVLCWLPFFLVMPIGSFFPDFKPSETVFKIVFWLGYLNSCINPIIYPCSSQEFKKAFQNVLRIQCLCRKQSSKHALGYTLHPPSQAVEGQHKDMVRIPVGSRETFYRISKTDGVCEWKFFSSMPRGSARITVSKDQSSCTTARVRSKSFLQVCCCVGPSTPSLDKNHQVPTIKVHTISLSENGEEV

[15] = target: Beta-1 adrenergic receptor (Homo sapiens) (UniProt P08588); test: Displacement of [125I]Iodopindolol from human adrenergic beta-1 receptor at 10 uM
[16] = target: Beta-2 adrenergic receptor (Homo sapiens) (UniProt P07550); test: Displacement of [125I]Iodopindolol from human adrenergic beta2 receptor at 10 uM
[17] = target: Beta-3 adrenergic receptor (Homo sapiens) (UniProt P13945); test: Displacement of [125I]Iodopindolol from human adrenergic beta3 receptor at 10 uM
[18] = target: D(1A) dopamine receptor (Homo sapiens) (UniProt P21728); test: Displacement of [3H][…] from human dopamine D1 receptor at 10 uM
[19] = target: D(2) dopamine receptor (Homo sapiens) (UniProt P14416); test: Displacement of [3H]N-methylspiperone from human dopamine D2 receptor at 10 uM
[20] = target: D(3) dopamine receptor (Homo sapiens) (UniProt P35462); test: Displacement of [3H]N-methylspiperone from human dopamine D3 receptor at 10 uM
[21] = target: D(4) dopamine receptor (Homo sapiens) (UniProt P21917); test: Displacement of [3H]N-methylspiperone from human dopamine D4 receptor at 10 uM
[22] = target: T5, Sodium-dependent dopamine transporter (Homo sapiens, UniProt Q01959); test: Displacement of [3H][…] from human DAT at 10 uM
T5 sequence (Q01959 whole entry): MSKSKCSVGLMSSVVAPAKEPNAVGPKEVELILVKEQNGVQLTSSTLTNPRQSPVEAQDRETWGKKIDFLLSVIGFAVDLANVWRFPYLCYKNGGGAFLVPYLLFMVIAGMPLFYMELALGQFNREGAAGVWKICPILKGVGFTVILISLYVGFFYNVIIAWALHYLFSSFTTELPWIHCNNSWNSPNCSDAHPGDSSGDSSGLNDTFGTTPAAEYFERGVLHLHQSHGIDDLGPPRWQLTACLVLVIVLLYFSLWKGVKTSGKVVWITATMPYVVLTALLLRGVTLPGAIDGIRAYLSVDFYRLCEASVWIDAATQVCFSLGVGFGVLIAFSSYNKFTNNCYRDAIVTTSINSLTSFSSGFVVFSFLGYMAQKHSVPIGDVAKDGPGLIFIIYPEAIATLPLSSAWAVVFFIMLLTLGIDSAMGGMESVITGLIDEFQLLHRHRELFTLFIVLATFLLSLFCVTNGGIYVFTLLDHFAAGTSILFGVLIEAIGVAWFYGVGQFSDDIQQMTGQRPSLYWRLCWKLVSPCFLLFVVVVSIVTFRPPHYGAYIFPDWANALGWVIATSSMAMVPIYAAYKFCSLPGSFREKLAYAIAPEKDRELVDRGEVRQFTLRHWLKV

[23] = target: Delta-type opioid receptor (Homo sapiens) (UniProt P41143); test: Displacement of [3H]DADLE from human delta opioid receptor at 10 uM
Sequence of Delta-type opioid receptor (Homo sapiens) (P41143 whole entry): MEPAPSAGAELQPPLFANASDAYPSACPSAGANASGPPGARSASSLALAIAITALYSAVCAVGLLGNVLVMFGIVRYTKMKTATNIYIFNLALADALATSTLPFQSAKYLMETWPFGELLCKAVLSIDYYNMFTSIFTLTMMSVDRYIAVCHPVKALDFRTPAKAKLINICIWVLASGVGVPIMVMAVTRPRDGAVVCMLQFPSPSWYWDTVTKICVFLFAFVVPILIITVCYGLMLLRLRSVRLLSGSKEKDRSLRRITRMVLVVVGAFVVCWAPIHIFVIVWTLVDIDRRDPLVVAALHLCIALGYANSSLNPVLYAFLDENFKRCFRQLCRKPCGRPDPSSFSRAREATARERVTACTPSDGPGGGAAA

[24] = target: Histamine H1 receptor (Homo sapiens) (UniProt P35367); test: Displacement of [3H]Pyrilamine from human histamine H1 receptor at 10 uM
[25] = target: Histamine H2 receptor (Homo sapiens) (UniProt P25021); test: Displacement of [3H]Tiotidine from human histamine H2 receptor at 10 uM
[26] = target: Histamine H3 receptor (Homo sapiens) (UniProt Q9Y5N1); test: Displacement of [3H]alpha-methylhistamine from human histamine H3 receptor at 10 uM
[27] = target: Histamine H4 receptor (Homo sapiens) (UniProt Q9H3N8); test: Displacement of [3H]Histamine from human histamine H4 receptor at 10 uM
[28] = target: Kappa-type opioid receptor (Homo sapiens) (UniProt P41145); test: Displacement of [3H]U69593 from human kappa opioid receptor at 10 uM
[29] = target: Muscarinic acetylcholine receptor M1 (Homo sapiens) (UniProt P11229); test: Displacement of [3H]QNB from human muscarinic M1 receptor at 10 uM
[30] = target: Muscarinic acetylcholine receptor M2 (Homo sapiens) (UniProt P08172); test: Displacement of [3H]QNB from human muscarinic M2 receptor at 10 uM
[31] = target: Muscarinic acetylcholine receptor M3 (Homo sapiens) (UniProt P20309); test: Displacement of [3H]QNB from human muscarinic M3 receptor at 10 uM
[32] = target: Muscarinic acetylcholine receptor M4 (Homo sapiens) (UniProt P08173); test: Displacement of [3H]QNB from human muscarinic M4 receptor at 10 uM
[33] = target: Muscarinic acetylcholine receptor M5 (Homo sapiens) (UniProt P08912); test: Displacement of [3H]QNB from human muscarinic M5 receptor at 10 uM
[34] = target: T6, Sodium-dependent noradrenaline transporter (Homo sapiens, UniProt P23975); test: Displacement of [3H]Nisoxetine from human NET at 10 uM
T6 sequence (P23975 whole entry): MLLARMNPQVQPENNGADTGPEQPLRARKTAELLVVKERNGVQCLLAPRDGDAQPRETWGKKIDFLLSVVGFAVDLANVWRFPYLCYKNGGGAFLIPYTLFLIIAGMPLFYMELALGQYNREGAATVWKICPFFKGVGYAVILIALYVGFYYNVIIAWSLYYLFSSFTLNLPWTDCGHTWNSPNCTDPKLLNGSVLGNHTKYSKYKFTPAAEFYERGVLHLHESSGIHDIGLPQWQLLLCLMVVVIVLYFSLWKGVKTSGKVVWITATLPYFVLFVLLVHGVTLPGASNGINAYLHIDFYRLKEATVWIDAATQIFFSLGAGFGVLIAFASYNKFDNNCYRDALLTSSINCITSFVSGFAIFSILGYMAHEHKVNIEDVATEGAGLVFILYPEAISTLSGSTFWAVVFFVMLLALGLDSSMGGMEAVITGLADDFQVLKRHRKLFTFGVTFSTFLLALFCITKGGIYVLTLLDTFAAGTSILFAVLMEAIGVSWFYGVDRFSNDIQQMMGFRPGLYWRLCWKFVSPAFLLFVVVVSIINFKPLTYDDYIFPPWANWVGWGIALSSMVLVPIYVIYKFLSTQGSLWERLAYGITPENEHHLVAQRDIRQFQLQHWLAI

[35] = target: T7, Sodium-dependent serotonin transporter (Homo sapiens, UniProt P31645); test: Displacement of [3H]Citalopram from human SERT at 10 uM
Target sequence in this assay (P31645 whole entry, looked up): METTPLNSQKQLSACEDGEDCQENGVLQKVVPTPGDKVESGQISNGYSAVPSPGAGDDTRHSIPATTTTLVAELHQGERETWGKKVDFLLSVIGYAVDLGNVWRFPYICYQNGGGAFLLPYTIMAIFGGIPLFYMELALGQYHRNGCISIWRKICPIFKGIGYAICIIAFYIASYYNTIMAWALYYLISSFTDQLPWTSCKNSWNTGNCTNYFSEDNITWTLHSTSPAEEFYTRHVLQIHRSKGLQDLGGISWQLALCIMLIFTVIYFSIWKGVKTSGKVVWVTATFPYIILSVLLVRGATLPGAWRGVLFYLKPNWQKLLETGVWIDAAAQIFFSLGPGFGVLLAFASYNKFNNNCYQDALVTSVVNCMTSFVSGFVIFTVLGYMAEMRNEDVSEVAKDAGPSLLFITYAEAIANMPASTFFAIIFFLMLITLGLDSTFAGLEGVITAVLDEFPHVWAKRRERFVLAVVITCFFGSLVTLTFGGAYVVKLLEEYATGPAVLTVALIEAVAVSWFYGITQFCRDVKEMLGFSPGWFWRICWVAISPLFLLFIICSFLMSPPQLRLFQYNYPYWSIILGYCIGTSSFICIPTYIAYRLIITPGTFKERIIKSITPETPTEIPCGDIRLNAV

[36] = target: Sigma non-opioid intracellular receptor 1 (Homo sapiens) (UniProt Q99720); test: Displacement of [3H]Pentazocine from human sigma 1 receptor at 10 uM
Sequence of Sigma non-opioid intracellular receptor 1 (Homo sapiens) (Q99720 whole entry): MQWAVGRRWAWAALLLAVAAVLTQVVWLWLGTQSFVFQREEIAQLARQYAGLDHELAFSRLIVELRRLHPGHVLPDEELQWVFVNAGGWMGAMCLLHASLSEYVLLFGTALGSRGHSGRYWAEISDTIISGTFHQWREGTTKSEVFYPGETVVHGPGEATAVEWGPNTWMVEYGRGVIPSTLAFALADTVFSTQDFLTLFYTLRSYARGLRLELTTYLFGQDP

Homo sapiens = organism: Homo sapiens; test: Displacement of [3H]DTG from human sigma 2 receptor at 10 uM
[37] = target: T5, Sodium-dependent dopamine transporter; test: Displacement of [3H][…] from human DAT
[38] = target: T6, Sodium-dependent noradrenaline transporter; test: Displacement of [3H]Nisoxetine from human NET
[39] = target: T7, Sodium-dependent serotonin transporter; test: Displacement of [3H]Citalopram from human SERT
Target sequence in this assay (P31645 whole entry): as the sequence (P31645 whole entry, looked up) above

[40] = target: T2, 5-hydroxytryptamine receptor 2B; test: Agonist activity at human 5HT2B receptor assessed as 5HT-induced calcium mobilization at 10 uM by FLIPR assay relative to 5HT; type: functional
[41] = target: T2, 5-hydroxytryptamine receptor 2B; test: Antagonist activity at human 5HT2B receptor assessed as inhibition of 10633-induced calcium mobilization by FLIPR assay; type: functional
[42] = target: T2, 5-hydroxytryptamine receptor 2B; test: Agonist activity at human 5HT2B receptor assessed as 10633-induced calcium mobilization by FLIPR assay; type: functional
[43] = target: T4, 5-hydroxytryptamine receptor 2C; test: Agonist activity at human 5HT2C receptor assessed as 5HT-induced calcium mobilization by FLIPR assay; type: functional
[44] = target: T4, 5-hydroxytryptamine receptor 2C; test: Agonist activity at human 5HT2C receptor assessed as 10633-induced calcium mobilization by FLIPR assay; type: functional
[45] = target: T2, 5-hydroxytryptamine receptor 2B; test: Agonist activity at human 5HT2B receptor assessed as 5HT-induced calcium mobilization by FLIPR assay; type: functional
[46] = target: Mu-type opioid receptor (Homo sapiens) (UniProt P35372); test: Displacement of [3H]DAMGO from human mu opioid receptor at 10 uM

T1 sequence (P28223 whole entry): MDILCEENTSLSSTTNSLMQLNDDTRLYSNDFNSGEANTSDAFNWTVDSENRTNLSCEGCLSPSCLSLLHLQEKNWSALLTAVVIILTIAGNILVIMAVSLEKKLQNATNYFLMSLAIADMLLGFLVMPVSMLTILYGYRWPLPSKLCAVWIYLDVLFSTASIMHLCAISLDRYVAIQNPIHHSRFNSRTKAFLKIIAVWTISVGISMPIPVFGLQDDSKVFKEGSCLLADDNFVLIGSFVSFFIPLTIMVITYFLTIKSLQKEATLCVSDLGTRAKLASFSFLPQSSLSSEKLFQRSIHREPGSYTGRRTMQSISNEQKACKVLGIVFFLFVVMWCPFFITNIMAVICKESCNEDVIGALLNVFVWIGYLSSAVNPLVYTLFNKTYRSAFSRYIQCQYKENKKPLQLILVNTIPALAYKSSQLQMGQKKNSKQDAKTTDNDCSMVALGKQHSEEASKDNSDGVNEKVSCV
T2 sequence (P41595 whole entry): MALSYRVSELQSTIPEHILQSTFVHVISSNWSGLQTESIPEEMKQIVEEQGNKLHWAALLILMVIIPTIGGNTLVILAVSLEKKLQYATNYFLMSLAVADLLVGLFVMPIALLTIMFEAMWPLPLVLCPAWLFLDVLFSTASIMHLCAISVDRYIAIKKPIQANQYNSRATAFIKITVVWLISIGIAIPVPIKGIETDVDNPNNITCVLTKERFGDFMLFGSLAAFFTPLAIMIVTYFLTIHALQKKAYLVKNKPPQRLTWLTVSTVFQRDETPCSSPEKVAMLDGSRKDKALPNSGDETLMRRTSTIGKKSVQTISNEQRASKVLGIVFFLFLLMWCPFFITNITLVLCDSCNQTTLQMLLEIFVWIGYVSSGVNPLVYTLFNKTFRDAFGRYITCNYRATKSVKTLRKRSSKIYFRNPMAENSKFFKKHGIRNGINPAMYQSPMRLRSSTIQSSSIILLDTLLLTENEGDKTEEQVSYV

CCCNC(=O)N1OCC2COc3ccccc3C21 (stereo unspecified)
inhibition [1]: 2.4% | inhibition [2]: 53.5% | inhibition [3]: 14.7% | Ki [4]: > 10 µM | Ki [5]: 6.6 µM | Ki [6]: > 10 µM

CCCCNC(=O)N1OCC2COc3ccccc3C21 (stereo unspecified)
inhibition [1]: 0.8% | inhibition [2]: 35.4% | inhibition [3]: 23.4% | Ki [4]: > 10 µM | Ki [5]: > 10 µM | Ki [6]: > 10 µM

Cc1ccccc1NC(=O)N1OCC2COc3ccccc3C21 (stereo unspecified)
inhibition [1]: 12.8% | inhibition [2]: 52.2% | inhibition [3]: 40.2% | Ki [4]: > 10 µM | Ki [5]: 4 µM | Ki [6]: > 10 µM

CCCCNC(=O)N1OCC2CSc3ccc(F)cc3C21 (stereo unspecified)
inhibition [2]: 92% | inhibition [3]: 34.9% | Ki [4]: > 10 µM | Ki [5]: 0.489 µM | Ki [6]: > 10 µM

CC(C)NC(=O)N1OCC2COc3ccccc3C21 (stereo unspecified)
inhibition [1]: -0.2% | inhibition [2]: 14.8% | inhibition [3]: 28.9% | Ki [4]: > 10 µM | Ki [5]: > 10 µM | Ki [6]: > 10 µM

CCCNC(=O)N1OCC2CSc3ccc(F)cc3C21 (stereo unspecified)
inhibition [2]: 93% | inhibition [3]: 37.4% | Ki [4]: > 10 µM | Ki [5]: 0.384 µM | Ki [6]: > 10 µM

O=C(NC1CCCCC1)N1OCC2CSc3ccc(F)cc3C21 (stereo unspecified)
inhibition [1]: 6.2% | inhibition [2]: 102% | inhibition [3]: 30% | Ki [4]: > 10 µM | Ki [5]: 0.042 µM | Ki [6]: > 10 µM | inhibition [7]: 36.9% | inhibition [8]: 1.3% | inhibition [9]: 4.5% | inhibition [10]: -7.8% | inhibition [11]: -8.7% | inhibition [12]: 46.6% | inhibition [13]: 27.1% | inhibition [14]: 37.8% | inhibition [15]: 2.4% | inhibition [16]: 3.7% | inhibition [17]: 7.1% | inhibition [18]: 14% | inhibition [19]: 8.1% | inhibition [20]: 3.2% | inhibition [21]: 12% | inhibition [22]: 66.3% | inhibition [23]: -3.2% | inhibition [24]: -4.3% | inhibition [25]: 30.8% | inhibition [26]: -10% | inhibition [27]: -0.5% | inhibition [28]: 34.6% | inhibition [29]: 23.4% | inhibition [30]: 23.7% | inhibition [31]: 20.6% | inhibition [32]: 44.9% | inhibition [33]: 31.8% | inhibition [34]: 34.1% | inhibition [35]: 20.4% | inhibition [36]: 16.5% | inhibition (Homo sapiens): 1.1% | Ki [37]: > 10 µM | Ki [38]: > 10 µM | Ki [39]: > 10 µM | Efficacy [40]: 0.5% | IC50 [41]: 0.0427 µM | EC50 [42]: > 10 µM | EC50 [43]: 0.000724 µM | EC50 [44]: > 10 µM | EC50 [45]: 0.00398 µM | inhibition [46]: 8.9%

CC(C)(C)NC(=O)N1OCC2COc3ccccc3C21 (stereo unspecified)
inhibition [1]: 12% | inhibition [2]: 43% | inhibition [3]: 25.9% | Ki [4]: > 10 µM | Ki [5]: > 10 µM | Ki [6]: > 10 µM

O=C(Nc1ccccc1)N1OCC2CSc3ccc(F)cc3C21 (stereo unspecified)
inhibition [1]: 33.6% | inhibition [2]: 95.3% | inhibition [3]: 61.2% | Ki [4]: > 10 µM | Ki [5]: 0.223 µM | Ki [6]: 5.17 µM

O=C(Nc1ccccc1)N1OCC2COc3ccccc3C21 (stereo unspecified)
inhibition [1]: 11% | inhibition [2]: 71.6% | inhibition [3]: 56.7% | Ki [4]: > 10 µM | Ki [5]: 1.61 µM | Ki [6]: > 10 µM

O=C(NC1CCCCC1)N1OCC2COc3ccccc3C21 (stereo unspecified)
inhibition [1]: 5.5% | inhibition [2]: 75.5% | inhibition [3]: 28.1% | Ki [4]: > 10 µM | Ki [5]: 1.77 µM | Ki [6]: > 10 µM

CC(C)NC(=O)N1OCC2CSc3ccc(F)cc3C21 (stereo unspecified)
inhibition [1]: 2.2% | inhibition [2]: 89.3% | inhibition [3]: 55.4% | Ki [4]: > 10 µM | Ki [5]: 0.569 µM | Ki [6]: > 10 µM

Source: ChEMBL document CHEMBL1221330, “N-tetrahydrothiochromenoisoxazole-1-carboxamides as selective antagonists of cloned human 5-HT2B” (Bioorg Med Chem Lett, 2010)
